According to PubChem BioAssay (NCI):
Several values for one entry are separate records, joined by “and”; a condition that tells them apart may be missing. Identical values can stand only once.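 Five concentrations, 48 hours, 96-well plates. Abbreviation: GI50, concentration required for 50% inhibition of growth. TGI: concentration producing complete growth inhibition.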 *1 amine or outer side, *2 acyl side, *3 side chain or, on linkers, in order; H or OH if unused. Where a SMILES comes first, the peptide text is derived from it. Bridges are numbered along the chain shown (N, C = ends). [ ]: non-standard residue; d: D form. ξ: configuration not given here. X4 = CCC(C)C(N[*:1])C(O)CC(=O)O[C@H](C(=O)C(C)C(=O)[*:2])C(C)C; NMeY = CN[C@@H](Cc1ccc(O)cc1)C(=O)O; X9 = O=C([C@@H]1CC(O)CN1[*:1])[*:2]; ξNMeL = CNC(CC(C)C)C(=O)O; ξT = CC(O)C(N)C(=O)O

Key:
Test in all cases: NCI tumour cell line growth inhibition, 48 h
MCF7 breast = test system: MCF7 breast
NCI-H522 lung = test system: NCI-H522 lung
HOP-62 NSCLC = test system: HOP-62 NSCLC
KM12 colon = test system: KM12 colon
ACHN renal = test system: ACHN renal
SF-295 CNS = test system: SF-295 CNS
OVCAR-5 ovarian = test system: OVCAR-5 ovarian
MDA-MB-231 breast = test system: MDA-MB-231 breast
SF-539 CNS = test system: SF-539 CNS
NCI-H460 lung = test system: NCI-H460 lung

SMILES	GI50 (MCF7 breast)	TGI (MCF7 breast)	GI50 (NCI-H522 lung)	TGI (NCI-H522 lung)	GI50 (HOP-62 NSCLC)	TGI (HOP-62 NSCLC)	GI50 (KM12 colon)	TGI (KM12 colon)	GI50 (ACHN renal)	TGI (ACHN renal)	GI50 (SF-295 CNS)	TGI (SF-295 CNS)	GI50 (OVCAR-5 ovarian)	TGI (OVCAR-5 ovarian)	GI50 (MDA-MB-231 breast)	TGI (MDA-MB-231 breast)	GI50 (SF-539 CNS)	TGI (SF-539 CNS)	TGI (NCI-H460 lung)	GI50 (NCI-H460 lung)
CCCCCCN1C(=O)/C(=c2\sc3n(c2=O)C2C(NN=3)N(CC)C(=O)N2CC)c2ccccc21 (stereo not drawn)	1.73 µM	> 50 µM	1.45 µM	> 50 µM	1.71 µM	> 50 µM	1.46 µM	> 50 µM	1.51 µM	> 50 µM	1.45 µM	> 50 µM	2.03 µM	> 50 µM	1.77 µM	10.4 µM	0.831 µM	1.59 µM	–	–
CCNC(=O)C(O)C1(O)CCC2[C@@H]3CCC4=CC(=O)C=C[C@]4(C)C3[C@@H](O)C[C@@]21C (stereo partly drawn)	–	–	–	> 100 µM	–	> 100 µM	–	> 100 µM	–	> 100 µM	–	> 100 µM	–	> 100 µM	–	–	–	> 100 µM	> 100 µM	–
N#CCCc1nc2ccc(Br)cc2c(=O)n1-c1ccc(O)c([N+](=O)[O-])c1	–	–	–	31.8 µM	–	> 100 µM	–	34.5 µM	–	> 100 µM	–	47.8 µM	–	> 100 µM	–	–	–	34.4 µM	66.9 µM	–
CCOC(=O)c1sc(=S)c2c(C(=O)c3ccccc3)c(C(=O)c3ccccc3)sc2c1C(=O)OCC	3.74 µM	26.6 µM	2.66 µM	6.89 µM	9.16 µM	> 100 µM	2.44 µM	11 µM	3 µM	9.32 µM	2.86 µM	13.5 µM	–	–	3.61 µM	34.5 µM	3.82 µM	17.8 µM	> 100 µM	21 µM
CCC(C)C1NC(=O)C(NC(=O)C(CC(C)C)N(C)C(=O)[C@@H]2CC(O)CN2)C(C)OC(=O)[C@H](Cc2ccc(OC)cc2)N(C)C(=O)[C@@H]2CCCN2C(=O)[C@H](CC(C)C)NC(=O)C(C)C(=O)[C@H](C(C)C)OC(=O)CC1O (stereo partly drawn) (H-[X9][ξNMeL][ξT][X4]LP[NMeY](Me); ester 3-C)	–	–	–	0.0519 µM and 0.0638 µM	–	0.154 µM	–	0.105 µM	0.0561 µM	1.01 µM and 1.9 µM	0.0166 µM	0.286 µM and 0.304 µM	0.365 µM	0.559 µM and 1.49 µM	0.0369 µM	–	–	0.0152 µM and 0.0395 µM	0.134 µM and 1.1 µM	–
Clc1ccc(C2=Nc3ccccc3SC(c3ccc(Cl)c(Cl)c3)C2)c(Cl)c1 (stereo not drawn)	–	–	–	28 µM	–	18.2 µM	–	24.2 µM	–	27.6 µM	–	17 µM	–	32.1 µM	–	–	–	32.9 µM	34.4 µM	–
O=[N+]([O-])c1ccc(Cc2nc3ccccc3s2)cc1	–	–	–	> 100 µM	–	> 100 µM	–	> 100 µM	–	> 100 µM	–	> 100 µM	–	> 100 µM	–	–	–	70.4 µM	> 100 µM	–
CSC(=S)N(C)c1nc(=[N+](C)C)ss1	–	–	–	> 100 µM	–	> 100 µM	–	> 100 µM	–	> 100 µM	–	> 100 µM	–	> 100 µM	–	–	–	> 100 µM	> 100 µM	–
O=S(=O)(O)C(F)(F)C(F)(F)C(F)(F)C(F)(F)F	–	–	–	–	–	> 100 µM	–	> 100 µM	–	> 100 µM	–	> 100 µM	–	> 100 µM	–	–	–	> 100 µM	> 100 µM	–
Cc1ccc2sc3cc(=O)cc(C)c-3nc2c1	–	–	–	> 100 µM	–	> 100 µM	–	> 100 µM	–	> 100 µM	–	> 100 µM	–	> 100 µM	–	–	–	> 100 µM	> 100 µM	–
